Assay results published in patent US20060019994A1, “I-sulphonlyl piperidine derivatives” (priority 2002, published 2006).

Molecular target: T1, proTNF-α convertase enzyme (TACE) (Homo sapiens, UniProt P78536)
T1 construct: a partially purified, isolated enzyme assay, the enzyme being obtained from the membranes of THP-1; endogenous in cells; host or cells: THP-1 cell membranes, partially purified
Assay: Isolated enzyme assay, proTNF-α convertase (TACE), partially purified enzyme from membranes of THP-1, fluorescent peptide substrate
Assay type: biochemical
Conditions: 26° C. for 4 hours, read-out: concentration causing 50% inhibition of TACE
Description: Recombinant human proMMP13 may be expressed and purified as described by Knauper et al. [V. Knauper et al., (1996) The Biochemical Journal 271:1544-1550 (1996)]. […] Activity is determined by measuring the fluorescence at λex 328 nm and λem 393 nm. Percent inhibition is calculated as follows: % Inhibition is equal to the [Fluorescenceplus inhibitor-Fluorescencebackground] divided by the [Fluorescenceminus inhibitor-Fluorescencebackground].
The ability of the compounds to inhibit proTNF-α convertase enzyme (TACE) may be assessed using a partially purified, isolated enzyme assay, the enzyme being obtained from the membranes of THP-1 as described by K. M. Mohler et al., (1994) Nature 370:218-220. The purified enzyme activity and inhibition thereof is determined by incubating the partially purified enzyme in the presence or absence of test compounds using the substrate 4′,5′-Dimethoxy-fluoresceinyl Ser.Pro.Leu.Ala.Gln.Ala.Val.Arg.Ser.Ser.Ser.Arg.Cys(4-(3-succinimid-1-yl)-fluorescein)-NH2 in assay buffer (50 mM Tris HCl, pH 7.4 containing 0.1% (w/v) Triton X-100 and 2 mM CaCl2), at 26° C. for 4 hours. The amount of inhibition is determined as for MMP13 except λex 485 nm and λem 538 nm were used. […]

T1 sequence (P78536 215-824): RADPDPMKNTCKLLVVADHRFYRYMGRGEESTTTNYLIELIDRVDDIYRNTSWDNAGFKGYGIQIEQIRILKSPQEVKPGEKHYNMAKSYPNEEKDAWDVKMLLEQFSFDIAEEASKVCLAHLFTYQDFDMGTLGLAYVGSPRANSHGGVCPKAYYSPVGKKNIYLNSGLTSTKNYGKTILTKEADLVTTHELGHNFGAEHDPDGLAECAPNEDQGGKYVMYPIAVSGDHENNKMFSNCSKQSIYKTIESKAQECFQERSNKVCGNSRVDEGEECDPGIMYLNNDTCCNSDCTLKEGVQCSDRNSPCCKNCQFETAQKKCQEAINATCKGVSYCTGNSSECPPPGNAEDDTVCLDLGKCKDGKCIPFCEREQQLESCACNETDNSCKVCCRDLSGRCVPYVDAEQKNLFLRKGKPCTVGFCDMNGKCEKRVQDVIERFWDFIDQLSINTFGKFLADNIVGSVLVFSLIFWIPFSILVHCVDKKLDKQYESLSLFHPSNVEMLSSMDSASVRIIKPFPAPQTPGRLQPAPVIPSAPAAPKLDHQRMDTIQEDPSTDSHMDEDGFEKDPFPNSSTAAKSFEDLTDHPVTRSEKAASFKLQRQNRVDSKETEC

IC50: 630 nM
Compound: Cc1cc(COC2CCN(S(=O)(=O)CCC3NC(=O)NC3=O)CC2)c2ccccc2n1 (stereo not shown) [Example 3, 5-[2-({4-[(2-Methylquinolin-4-yl)methoxy]piperidin-1-yl}sulphonyl)ethyl]imidazolidine-2,4-dione]
